What was measured:
Format in all cases: ADME, cell-based
MCF7 [1] = experiment: Cellular uptake in human MCF7 cells assessed as increase in labeled cells at 1 uM after 24 hrs by flow cytometry; conditions: mcf7, 24 h
HEK293 [2] = experiment: Cellular uptake in HEK293 cells assessed as localization to nucleus at 1 uM after 24 hrs by fluorescence microscopy; conditions: human, hek293, 24 h
HEK293 [3] = experiment: Cellular uptake in HEK293 cells assessed as labeled cells at 1 uM after 24 hrs by flow cytometry; conditions: human, hek293, 24 h
HEK293 [4] = experiment: Cellular uptake in HEK293 cells assessed as localization to cytoplasm at 1 uM after 24 hrs by fluorescence microscopy; conditions: human, hek293, 24 h
MCF7 [5] = experiment: Cellular uptake in human MCF7 cells assessed as labeled cells at 1 uM after 24 hrs by flow cytometry; conditions: mcf7, 24 h
HEK293 [6] = experiment: Cellular uptake in HEK293 cells assessed as intracellular localization at 1 uM after 24 hrs by fluorescence microscopy; conditions: human, hek293, 24 h

Drug uptake (HEK293 [3]) [%] | further results | SMILES
> 82 | Drug uptake (MCF7 [1]): Active; Drug uptake (HEK293 [2]): Active | CN(C)CCCNC(=O)c1cc(NC(=O)c2cc(NC(=O)c3cc(NC(=O)CCNc4cc(NC(=O)c5cc(NC(=O)c6cc(NC(=O)CCNC(=S)Nc7ccc(-c8c9ccc(=O)cc-9oc9cc(O)ccc89)c(C(=O)O)c7)cn6C)cn5C)cn4C)cn3C)cn2C)cn1C
53 |  | CN(C)CCCNC(=O)c1nc(NC(=O)c2nc(NC(=O)c3nc(NC(=O)CCNC(=S)Nc4ccc(-c5c6ccc(=O)cc-6oc6cc(O)ccc56)c(C(=O)O)c4)cn3C)cn2C)cn1C
> 82 | Drug uptake (HEK293 [2]): Active | CN(C)CCCNC(=O)c1cc(NC(=O)c2cc(NC(=O)c3cc(NC(=O)CCNc4cc(NC(=O)c5cc(NC(=O)c6cc(NC(=O)CCNc7cc(NC(=O)c8cc(NC(=O)c9cc(NC(=O)CCNC(=S)Nc%10ccc(-c%11c%12ccc(=O)cc-%12oc%12cc(O)ccc%11%12)c(C(=O)O)c%10)cn9C)cn8C)cn7C)cn6C)cn5C)cn4C)cn3C)cn2C)cn1C
1.1 |  | CN(C)CCCNC(=O)c1nc(NC(=O)c2nc(NC(=O)c3nc(NC(=O)CCNc4nc(NC(=O)c5nc(NC(=O)c6nc(NC(=O)CCNc7nc(NC(=O)c8nc(NC(=O)c9nc(NC(=O)CCNc%10nc(NC(=O)c%11nc(NC(=O)c%12nc(NC(=O)CCNC(=S)Nc%13ccc(-c%14c%15ccc(=O)cc-%15oc%15cc(O)ccc%14%15)c(C(=O)O)c%13)cn%12C)cn%11C)cn%10C)cn9C)cn8C)cn7C)cn6C)cn5C)cn4C)cn3C)cn2C)cn1C
> 82 | Drug uptake (HEK293 [4]): Active | CN(C)CCCNC(=O)c1cc(NC(=O)c2cc(NC(=O)c3cc(NC(=O)CCNc4cc(NC(=O)c5cc(NC(=O)c6cc(NC(=O)CCNc7cc(NC(=O)c8cc(NC(=O)c9cc(NC(=O)CCNc%10cc(NC(=O)c%11cc(NC(=O)c%12cc(NC(=O)CCNc%13cc(NC(=O)c%14cc(NC(=O)c%15cc(NC(=O)CCNC(=S)Nc%16ccc(-c%17c%18ccc(=O)cc-%18oc%18cc(O)ccc%17%18)c(C(=O)O)c%16)cn%15C)cn%14C)cn%13C)cn%12C)cn%11C)cn%10C)cn9C)cn8C)cn7C)cn6C)cn5C)cn4C)cn3C)cn2C)cn1C
3 |  | CN(C)CCCNC(=O)c1nc(NC(=O)c2nc(NC(=O)c3nc(NC(=O)CCNc4nc(NC(=O)c5nc(NC(=O)c6nc(NC(=O)CCNc7nc(NC(=O)c8nc(NC(=O)c9nc(NC(=O)CCNC(=S)Nc%10ccc(-c%11c%12ccc(=O)cc-%12oc%12cc(O)ccc%11%12)c(C(=O)O)c%10)cn9C)cn8C)cn7C)cn6C)cn5C)cn4C)cn3C)cn2C)cn1C
53 |  | CN(C)CCCNC(=O)c1cc(NC(=O)c2cc(NC(=O)c3cc(NC(=O)CCNC(=S)Nc4ccc(-c5c6ccc(=O)cc-6oc6cc(O)ccc56)c(C(=O)O)c4)cn3C)cn2C)cn1C
 | Drug uptake (MCF7 [5]): > 90% | CN(C)CCCNC(=O)c1cc(NC(=O)c2cc(NC(=O)c3cc(NC(=O)CCCNC(=O)c4cc(NC(=O)c5cc(NC(=O)c6cc(NC(=O)CCNC(=S)Nc7ccc(-c8c9ccc(=O)cc-9oc9cc(O)ccc89)c(C(=O)O)c7)cn6C)cn5C)cn4C)cn3C)cn2C)cn1C
> 82 |  | CN(C)CCCNC(=O)c1cc(NC(=O)c2cc(NC(=O)c3cc(NC(=O)CCNc4cc(NC(=O)c5cc(NC(=O)c6cc(NC(=O)CCNc7cc(NC(=O)c8cc(NC(=O)c9cc(NC(=O)CCNc%10cc(NC(=O)c%11cc(NC(=O)c%12cc(NC(=O)CCNC(=S)Nc%13ccc(-c%14c%15ccc(=O)cc-%15oc%15cc(O)ccc%14%15)c(C(=O)O)c%13)cn%12C)cn%11C)cn%10C)cn9C)cn8C)cn7C)cn6C)cn5C)cn4C)cn3C)cn2C)cn1C
39 | Drug uptake (MCF7 [1]): Not Active; Drug uptake (HEK293 [2]): Not Active | CN(C)CCCNC(=O)c1nc(NC(=O)c2nc(NC(=O)c3nc(NC(=O)CCNc4nc(NC(=O)c5nc(NC(=O)c6nc(NC(=O)CCNC(=S)Nc7ccc(-c8c9ccc(=O)cc-9oc9cc(O)ccc89)c(C(=O)O)c7)cn6C)cn5C)cn4C)cn3C)cn2C)cn1C
> 82 | Drug uptake (HEK293 [4]): Active; Drug uptake (HEK293 [6]): Active | CN(C)CCCNC(=O)c1cc(NC(=O)c2cc(NC(=O)c3cc(NC(=O)CCNc4cc(NC(=O)c5cc(NC(=O)c6cc(NC(=O)CCNc7cc(NC(=O)c8cc(NC(=O)c9cc(NC(=O)CCNc%10cc(NC(=O)c%11cc(NC(=O)c%12cc(NC(=O)CCNc%13cc(NC(=O)c%14cc(NC(=O)c%15cc(NC(=O)CCNc%16cc(NC(=O)c%17cc(NC(=O)c%18cc(NC(=O)CCNC(=S)Nc%19ccc(-c%20c%21ccc(=O)cc-%21oc%21cc(O)ccc%20%21)c(C(=O)O)c%19)cn%18C)cn%17C)cn%16C)cn%15C)cn%14C)cn%13C)cn%12C)cn%11C)cn%10C)cn9C)cn8C)cn7C)cn6C)cn5C)cn4C)cn3C)cn2C)cn1C

Source: ChEMBL document CHEMBL1158504, “Cell permeability of Py-Im-polyamide-fluorescein conjugates: Influence of molecular size and Py/Im content” (Bioorg Med Chem, 2010)
